Source: US20250339567A1, “COMPOUNDS WITH IMPROVED PHARMACOKINETICS FOR IMAGING AND THERAPY OF CANCER” (priority 2019, published 2025)
Entries after “also recorded” stand apart in the source; their conditions may differ. Values belong to the compound of their own block, whether it stands above or below them. Starred links: 1 amine or outer side, 2 acyl side, 3 side chain; linkers in the order of their positions; H or OH if unused. Non-standard residues stand in square brackets, D forms with d. Residues, ends and D or L forms follow the SMILES beside them. *: point of attachment. Sta = CC(C)C[C@H](N)[C@@H](O)CC(=O)O; Bta = N[C@@H](Cc1csc2ccccc12)C(=O)O; X1 = O=C(CN1CCC(N[*:1])CC1)[*:2]; X2 = NCCNCC(CNCCN)C(=O)*

Tests used:
[1] = n-Octanol-PBS distribution coefficient, log D7.4; type: physicochemical; conditions: 99mTc-labeled; n-octanol/PBS pH 7.4
Protocol: Approximately 1 MBq of the labeled tracer was dissolved in 1 mL of a 1:1 mixture (v/v) of phosphate buffered saline (PBS, pH=7.4) and n-octanol in an Eppendorf tube. After vigorous mixing of the suspension for 3 min at room temperature, the vial was centrifuged at 9000 rpm for 5 min (Biofuge 15, Heraus Sepatech, Osterode, Germany) and 200 μL aliquots of both layers were measured in a γ-counter. The experiment was repeated at least four times.

[2] = system: PC-3 tumor-bearing CB17-SCID mice; assay: Biodistribution in PC-3 tumor-bearing CB17-SCID mice; type: in vivo
Protocol: All animal experiments were conducted in accordance with general animal welfare regulations in Germany (German animal protection act, as amended on 18 May 2018, Art. 141 G v. 29.3.2017 | 626, approval no. ROB-55.2-2532.Vet_02-18-109) and the institutional guidelines for the care and use of animals. To establish tumor xenografts, PC-3 cells (5×10^6 cells per 200 μL) were suspended in a 1:1 mixture (v/v) of Dulbecco's modified eagle's medium/Ham's F-12 (DMEM/F-12) with Glutamax-I (1:1) and Cultrex® Basement Membrane Matrix Type 3 (Trevigen Inc., Gaithersburg, MD, USA) and inoculated subcutaneously onto the right shoulder of 6-10 weeks old female CB17-SCID mice (Charles River Laboratories International Inc., Sulzfeld, Germany). Mice were used for experiments when tumor volume was 125-500 mm^3 (2-3 weeks after inoculation).
Approximately 1-5 MBq ([…]) of the radiolabeled GRPR antagonists were injected into the tail vein of PC-3 tumor-bearing mice and sacrificed at 1, 4 or 24 h p.i. (n=4). Selected organs were removed, weighted and measured in a γ-counter (Perkin Elmer, Waltham, MA, USA).

GRPR = molecular target: T1, GRPR (Homo sapiens, UniProt P30550); assay: Determination of GRPR affinity (IC50), competition with [D-3-[125I]I-Tyr6]MJ9 on PC-3 cells; type: binding; conditions: 2 h, r.t.
T1 construct: endogenous in cells; host or cells: PC-3 cells
Protocol: The reference ligand for IC50 studies ([D-3-[^125I]I-Tyr^6]MJ9) is prepared according to a previously published procedure. Briefly, 0.2 mg of [D-Tyr^6]MJ9 are dissolved in 20 μL Tracepur water and 280 μL TRIS buffer (25 mm TRIS HCl, 0.4 M NaCl, pH=7.9). After addition of the solution to a vial containing 150 μg Iodo-Gen® (1,3,4,6-Tetrachloro-3α,6α-diphenylglycouril, surface-bound), 5.0 μL (16 MBq) [^125I]Nal(74 TBq/mmol, 3.1 GBq/mL, 40 mM NaOH, Hartmann Analytic, Braunschweig, Germany) are added.
The GRPR-positive PC-3 cells are cultured in Dublecco modified Eagle medium/Nutrition Mixture F-12 with Glutamax-I (1:1) (Invitrigon), supplemented with 10% fetal calf serum and maintained at 37° C. in a humidified 5% CO2 atmosphere.
After removal of the culture medium, the cells are washed once with 500 μL of HBSS (Hank's balanced salt solution, Biochrom, Berlin, Germany, with addition of 1% bovine serum albumin (BSA)) and left in 200 μL HBSS (1% BSA) for 9 min at room temperature for equilibration. Next, 25 μL per well of solutions, containing either HBSS (1% BSA) as control or the respective ligand in increasing concentration (10^−10 M-10^−4 M in HBSS), are added with subsequent addition of 25 μL of [D-3-[^125I]I-Tyr^6]MJ9 (2.0 nM) in HBSS (1% BSA).
All experiments are performed in triplicate for each concentration. After 2 h incubation at room temperature, the experiment is terminated by removal of the medium and consecutive rinsing with 300 μL of HBSS. The media of both steps are combined in one fraction and represent the amount of free radiolabeled reference. Afterwards, the cells are lysed with 300 μL of 1 M NaOH for at least 15 min and united with the 300 μL NaOH of the following washing step. Quantification of bound and free radiolabeled reference is accomplished in a γ-counter.
IC50 determination for each ligand was repeated twice.

[3] = Plasma studies: metabolic stability in vitro in human plasma (radio RP-HPLC); type: in vitro ADME; conditions: 37° C.
Procedure, shortened: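 Radiotracer incubated in human or murine plasma at 37° C. immediately after labeling, for 72±2 h or 6±0.5 h. Proteins precipitated with ice-cold EtOH and MeCN and centrifuged. Supernatant analysed by radio RP-HPLC.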

[4] = Plasma studies: metabolic stability in vitro in murine plasma (radio RP-HPLC); type: in vitro ADME; conditions: 37° C.
Protocol: Metabolic stability in vitro was determined applying a procedure published by Linder et al. that was slightly modified. Immediately after labeling, human (200 μL) or murine (100 μL) plasma was added and the mixture was incubated at 37° C. for 72±2 h (or 6±0.5 h). Proteins were precipitated by treatment with ice-cold EtOH (150 μL [human], 100 μL [murine]) and ice-cold MeCN (450 μL [human], 300 μL [murine]), followed by centrifugation for 20 min at 13000 rpm. The supernatants were decanted and further analyzed using radio RP-HPLC.
Therefore, only 100 μL of murine plasma was added to the tracer solution (final volume of 200 μL) immediately after labeling was finished. According to Linder et al. (Bioconjugate Chem. 20, 1171-1178 (2009)), metabolism is more rapid in murine than in human plasma for which reason the experiment was terminated after incubation at 37° C. for 6±0.5 h (FIGS. 5 and 6). Nevertheless, due to a smaller volume the murine mixture was additionally examined after incubation at 37° C. for 72±2 h (FIGS. 7 and 8).

PC-3 cells = assay: Internalization into PC-3 cells; type: cell-based; conditions: c = 1 nM, 1 h, 37° C., corrected for non-specific binding (10^-3 M [natLu]RM2)
Protocol: For internalization studies, PC-3 cells are harvested 24±2 h before the experiment and seeded in 24-well plates (1.5×10^5 cells/well, 1 mL). Subsequent to the removal of the culture medium, the cells are washed once with 500 μL DMEM/F-12 (5% BSA) and left to equilibrate at 37° C. for at least 15 min in 200 μL DMEM/F-12 (5% BSA). […] Next, 25 μL of the ^125I/^177Lu-labeled GRPR ligand (10 nm) is added and the cells are incubated at 37° C. for 60 min.
The experiment is terminated by placing the 24-well plate on ice for 1 min and consecutive removal of the medium. Each well is rinsed with 300 μL ice-cold PBS and the fractions from these first two steps are combined, representing the amount of free radiolabeled reference. Removal of surface bound activity is accomplished by incubation of the cells with 300 μL of ice-cold Acid Wash solution (0.02 M NaOAc, pH=5.0) for 10 min at room temperature and rinsed again with 300 μL of ice-cold PBS. The internalized activity is determined by incubation of the cells in […] NaOH (1 M) and the combination with the fraction of a subsequent washing step with 300 μL NaOH (1 M).
Each experiment (control and blockade) is performed sixfold. Free, surface bound and internalized activity is quantified in a γ-counter. Data is corrected for non-specific internalization.

[5] = human plasma, 72±2 h, FIGS. 1-4

T1 sequence (P30550 whole entry): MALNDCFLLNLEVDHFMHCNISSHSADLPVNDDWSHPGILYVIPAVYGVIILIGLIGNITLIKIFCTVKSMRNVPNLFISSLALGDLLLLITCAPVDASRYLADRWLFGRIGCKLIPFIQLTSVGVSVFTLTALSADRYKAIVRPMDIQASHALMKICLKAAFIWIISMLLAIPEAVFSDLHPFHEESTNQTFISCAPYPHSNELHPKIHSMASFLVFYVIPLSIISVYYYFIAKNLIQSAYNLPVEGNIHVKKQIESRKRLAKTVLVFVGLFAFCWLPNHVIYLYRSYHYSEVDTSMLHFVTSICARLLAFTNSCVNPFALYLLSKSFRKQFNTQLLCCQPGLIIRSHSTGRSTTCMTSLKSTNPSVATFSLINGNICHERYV

log D7.4 (n = 6), ^99mTc-labeled [1]: −1.29 ± 0.08
Compound: CC(C)C[C@H](NC(=O)C[C@H](O)[C@H](CC(C)C)NC(=O)[C@H](Cc1c[nH]cn1)NC(=O)CNC(=O)[C@@H](NC(=O)[C@H](C)NC(=O)[C@](C)(Cc1c[nH]c2ccccc12)NC(=O)[C@H](CCC(N)=O)NC(=O)[C@@H](Cc1ccccc1)NC(=O)CN1CCC(NC(=O)C(CNCCN)CNCCN)CC1)C(C)C)C(N)=O [N4-[α-Me-Trp^8]MJ9]
tumor accumulation at 4 h p.i. compared to 1 h p.i. ([2]; mouse, in vivo): enhanced tumor accumulation compared to 1 h p.i.

IC50 (GRPR; IC50 [nM] ± SD (n = 3), Table 5, non-labeled N4 ligands, [D-3-[125I]I-Tyr6]MJ9 (c = 0.2 nM)): 3.36 ± 0.42 nM | log D7.4 (n = 6), ^99mTc-labeled [1]: −1.33 ± 0.06
Compound: CC(C)C[C@H](NC(=O)C[C@H](O)[C@H](CC(C)C)NC(=O)[C@H](Cc1c[nH]cn1)NC(=O)CNC(=O)[C@@H](NC(=O)[C@H](C)NC(=O)[C@H](Cc1csc2ccccc12)NC(=O)[C@H](CCC(N)=O)NC(=O)[C@@H](Cc1ccccc1)NC(=O)CN1CCC(NC(=O)[C@H](CC(=O)O)NC(=O)C(CNCCN)CNCCN)CC1)C(C)C)C(N)=O [N4-asp-[Bta^8]MJ9] (X2-D[X1][dF]Q[Bta]AVGH[Sta]L-NH2)

Compound: CC(C)C[C@H](NC(=O)C[C@H](O)[C@H](CC(C)C)NC(=O)[C@H](Cc1c[nH]cn1)NC(=O)CNC(=O)[C@@H](NC(=O)[C@H](C)NC(=O)[C@H](Cc1c[nH]c2ccccc12)NC(=O)[C@H](CCC(N)=O)NC(=O)[C@@H](Cc1ccccc1)NC(=O)CN1CCC(NC(=O)CN2CCN(CC(=O)O)CCN(CC(=O)O)CCN(CC(=O)O)CC2)CC1)C(C)C)C(N)=O [RM2, DOTA-Pip-D-Phe-Gln-Trp-Ala-Val-Gly-His-Sta-Leu-NH2]
Amount of intact tracer after incubation in human plasma for 72 ± 2 h (n = 2) ([3]; Table 1C, 177Lu-labeled, 72 ± 2 h, in % (unit assumed)): 33.5 ± 2.7 | amount of intact tracer (in vitro stability), mean ± SD ([3]; human plasma, 72±2 h): 33.5±2.7% | metabolite, first-eluting peak in chromatogram [3, 5]: 54% | metabolite, second peak in chromatogram [3, 5]: 9% | remaining intact tracer in chromatogram ([3]; human plasma, 72±2 h, single chromatogram (FIGS. 1-4)): 36% | metabolite, first-eluting peak in chromatogram ([4]; 6±0.5 h): 2% | metabolite, second peak in chromatogram ([4]; 6±0.5 h): 2% | metabolite, third peak in chromatogram ([4]; 6±0.5 h): 4% | remaining intact tracer in chromatogram ([4]; 6±0.5 h, FIGS. 5-6): 92% | remaining intact tracer in chromatogram ([4]; 72±2 h, FIGS. 7-8): 67% | tumor retention ([2]; 177Lu-labeled, 24 h p.i., 100 pmol, FIGS. 11, 18, listed as [^177Lu]RM2): high amounts; also recorded: higher tumor retention than the other derivatives of this series

IC50 (GRPR; IC50 ± SD (n = 3), Table 3, [D-3-[125I]I-Tyr6]MJ9 (c = 0.2 nM), HBSS + 1% BSA): 1.33 ± 0.36 nM | IC50 ± SD (n = 3) (GRPR; Table 3, [D-3-[125I]I-Tyr6]MJ9 (c = 0.2 nM), HBSS + 1% BSA): particularly high affinity
Compound: CC(C)C[C@H](NC(=O)C[C@H](O)[C@H](CC(C)C)NC(=O)[C@H](Cc1c[nH]cn1)NC(=O)CNC(=O)[C@@H](NC(=O)[C@H](C)NC(=O)[C@H](Cc1c[nH]c2ccccc12)NC(=O)[C@H](CCC(N)=O)NC(=O)[C@@H](Cc1ccc(O)c(I)c1)NC(=O)CN1CCC(N)CC1)C(C)C)C(N)=O [[D-3-I-Tyr^6]MJ9, reference compound]
Specific internalization (mean ± SD, n = 6) (PC-3 cells): 3.57 ± 0.57 % of the used activity
